Experimental data from ChEMBL document CHEMBL1201862, “PubChem BioAssay data set” (2004).
Calls of active or inactive are those of the source.

Columns and labels:
[1] = target: T1, Carboxy-terminal domain RNA polymerase II polypeptide A small phosphatase 1 (Homo sapiens, UniProt Q9GZU7); assay: inhibitors of CTDSP1, concentration-response testing, biochemical assay, absorbance-based, actives from ultra-high-throughput screening (AID 540297); type: functional
T1 sequence (Q9GZU7 whole entry): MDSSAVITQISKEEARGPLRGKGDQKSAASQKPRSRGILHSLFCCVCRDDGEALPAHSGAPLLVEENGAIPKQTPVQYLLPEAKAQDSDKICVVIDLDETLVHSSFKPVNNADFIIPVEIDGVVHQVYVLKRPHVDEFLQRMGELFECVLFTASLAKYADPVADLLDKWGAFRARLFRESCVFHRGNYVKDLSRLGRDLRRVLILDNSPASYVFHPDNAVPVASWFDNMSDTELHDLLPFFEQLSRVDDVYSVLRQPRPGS

[2] = target: Tyrosine-protein phosphatase non-receptor type 11 (Homo sapiens, UniProt Q06124); assay: SHP2 phosphatase inhibition, dose response, selectivity assay for STEP inhibitor project, biochemical (AID 602367); type: functional; conditions: read-out: IC50_Mean
Chain of Tyrosine-protein phosphatase non-receptor type 11 (Q06124 whole entry): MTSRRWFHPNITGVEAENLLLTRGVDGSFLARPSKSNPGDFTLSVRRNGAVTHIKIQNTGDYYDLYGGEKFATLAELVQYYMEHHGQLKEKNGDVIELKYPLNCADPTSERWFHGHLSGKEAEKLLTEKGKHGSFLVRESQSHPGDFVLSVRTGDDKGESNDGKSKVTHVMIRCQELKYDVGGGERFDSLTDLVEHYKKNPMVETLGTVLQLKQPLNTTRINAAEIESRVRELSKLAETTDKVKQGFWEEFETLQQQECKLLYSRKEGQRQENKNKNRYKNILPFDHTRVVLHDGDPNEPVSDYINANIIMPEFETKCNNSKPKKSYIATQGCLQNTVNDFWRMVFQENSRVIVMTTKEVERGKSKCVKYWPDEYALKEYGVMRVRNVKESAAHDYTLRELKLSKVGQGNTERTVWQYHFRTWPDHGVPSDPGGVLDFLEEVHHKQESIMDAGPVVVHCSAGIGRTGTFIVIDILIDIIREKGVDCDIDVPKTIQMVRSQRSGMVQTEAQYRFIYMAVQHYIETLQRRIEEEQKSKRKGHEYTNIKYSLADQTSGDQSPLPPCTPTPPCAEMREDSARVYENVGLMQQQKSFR

[3] = target: Tyrosine-protein phosphatase non-receptor type 5 (Homo sapiens, UniProt P54829); assay: STEP phosphatase inhibitors, confirmation, biochemical, fluorescence intensity, uHTS hits (AID 602372); type: functional; conditions: read-out: IC50_Mean
Chain of Tyrosine-protein phosphatase non-receptor type 5 (P54829 whole entry): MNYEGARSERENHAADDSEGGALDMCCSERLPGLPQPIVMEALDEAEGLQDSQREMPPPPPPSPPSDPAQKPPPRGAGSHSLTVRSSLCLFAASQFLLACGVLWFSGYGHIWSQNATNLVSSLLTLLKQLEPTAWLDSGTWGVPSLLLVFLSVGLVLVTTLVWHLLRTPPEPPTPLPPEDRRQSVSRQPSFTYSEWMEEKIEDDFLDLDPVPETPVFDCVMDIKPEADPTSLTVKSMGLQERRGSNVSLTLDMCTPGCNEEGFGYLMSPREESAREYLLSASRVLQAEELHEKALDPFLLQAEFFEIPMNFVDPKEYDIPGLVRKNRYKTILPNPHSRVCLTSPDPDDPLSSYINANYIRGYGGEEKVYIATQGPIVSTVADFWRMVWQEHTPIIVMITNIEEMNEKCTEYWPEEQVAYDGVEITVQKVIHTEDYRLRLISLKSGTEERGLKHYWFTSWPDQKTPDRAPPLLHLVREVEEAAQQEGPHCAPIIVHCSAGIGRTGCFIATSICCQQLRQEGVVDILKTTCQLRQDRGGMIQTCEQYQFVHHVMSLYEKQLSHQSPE

[4] = target: Dual specificity protein phosphatase 3 (Homo sapiens, UniProt P51452); assay: VHR phosphatase inhibition, dose response, selectivity assay for STEP inhibitor project, biochemical (AID 602374); type: functional; conditions: read-out: IC50_Mean
Chain of Dual specificity protein phosphatase 3 (P51452 whole entry): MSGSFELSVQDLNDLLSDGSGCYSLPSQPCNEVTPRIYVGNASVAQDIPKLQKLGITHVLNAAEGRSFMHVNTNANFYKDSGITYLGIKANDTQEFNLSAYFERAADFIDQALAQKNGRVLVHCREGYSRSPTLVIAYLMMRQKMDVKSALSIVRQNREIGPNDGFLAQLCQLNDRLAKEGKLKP

[5] = target: T2, Tyrosine-protein phosphatase non-receptor type 22 (Homo sapiens, UniProt Q9Y2R2); assay: PTPN22 phosphatase inhibition, dose response, selectivity assay for STEP inhibitor project, biochemical (AID 624241); type: functional
T2 sequence (Q9Y2R2 whole entry): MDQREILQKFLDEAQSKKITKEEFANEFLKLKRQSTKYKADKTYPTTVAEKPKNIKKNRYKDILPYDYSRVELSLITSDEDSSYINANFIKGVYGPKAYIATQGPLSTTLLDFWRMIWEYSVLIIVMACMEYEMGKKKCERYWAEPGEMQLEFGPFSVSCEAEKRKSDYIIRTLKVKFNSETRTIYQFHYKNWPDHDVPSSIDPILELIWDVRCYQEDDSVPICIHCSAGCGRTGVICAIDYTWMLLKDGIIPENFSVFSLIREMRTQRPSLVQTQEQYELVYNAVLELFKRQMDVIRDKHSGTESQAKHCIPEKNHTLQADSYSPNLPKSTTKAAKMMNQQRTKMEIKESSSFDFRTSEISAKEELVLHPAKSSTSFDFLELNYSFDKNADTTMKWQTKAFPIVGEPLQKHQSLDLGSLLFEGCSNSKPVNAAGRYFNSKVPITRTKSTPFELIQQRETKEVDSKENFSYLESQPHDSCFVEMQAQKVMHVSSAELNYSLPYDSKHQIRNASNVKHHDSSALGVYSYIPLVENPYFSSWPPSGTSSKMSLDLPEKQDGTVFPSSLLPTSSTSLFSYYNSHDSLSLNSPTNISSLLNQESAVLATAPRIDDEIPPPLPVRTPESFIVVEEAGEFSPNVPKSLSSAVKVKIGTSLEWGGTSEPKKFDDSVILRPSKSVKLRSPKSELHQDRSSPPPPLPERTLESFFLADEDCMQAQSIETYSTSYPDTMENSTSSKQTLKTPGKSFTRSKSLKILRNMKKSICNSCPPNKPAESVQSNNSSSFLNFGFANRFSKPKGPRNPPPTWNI

[6] = target: Fructose-bisphosphate aldolase (Mycobacterium tuberculosis, UniProt P9WQA3); assay: Fluorescence-based biochemical high throughput dose response assay for inhibitors of the fructose-bisphosphate aldolase (FBA) of M. tuberculosis.; type: functional
Chain of Fructose-bisphosphate aldolase (P9WQA3 whole entry): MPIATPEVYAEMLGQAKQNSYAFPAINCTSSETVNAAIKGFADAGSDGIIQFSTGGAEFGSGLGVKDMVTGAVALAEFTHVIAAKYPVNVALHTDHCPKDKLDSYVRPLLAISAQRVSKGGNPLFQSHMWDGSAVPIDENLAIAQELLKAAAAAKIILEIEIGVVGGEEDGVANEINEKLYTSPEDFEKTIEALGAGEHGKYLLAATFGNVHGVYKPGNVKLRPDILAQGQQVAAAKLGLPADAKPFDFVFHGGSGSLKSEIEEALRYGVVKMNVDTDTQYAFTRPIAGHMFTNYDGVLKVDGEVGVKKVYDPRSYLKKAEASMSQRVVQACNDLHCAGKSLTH

[7] = T. cruzi growth inhibition in host cells, dose response, cell-based, plate reader, dry powder, set 2 (AID 652275); type: functional
[8] = target: Arf-GAP with SH3 domain, ANK repeat and PH domain-containing protein 1 (Homo sapiens, UniProt Q9ULH1); type: functional;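 also: biochemical fluorescence polarization dose–response screen measuring inhibition of ASAP1; ASAP1 GAP domain stimulating GTP hydrolysis by truncated human ARF1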
Chain of Arf-GAP with SH3 domain, ANK repeat and PH domain-containing protein 1 (Q9ULH1 whole entry, the tested form may be a part): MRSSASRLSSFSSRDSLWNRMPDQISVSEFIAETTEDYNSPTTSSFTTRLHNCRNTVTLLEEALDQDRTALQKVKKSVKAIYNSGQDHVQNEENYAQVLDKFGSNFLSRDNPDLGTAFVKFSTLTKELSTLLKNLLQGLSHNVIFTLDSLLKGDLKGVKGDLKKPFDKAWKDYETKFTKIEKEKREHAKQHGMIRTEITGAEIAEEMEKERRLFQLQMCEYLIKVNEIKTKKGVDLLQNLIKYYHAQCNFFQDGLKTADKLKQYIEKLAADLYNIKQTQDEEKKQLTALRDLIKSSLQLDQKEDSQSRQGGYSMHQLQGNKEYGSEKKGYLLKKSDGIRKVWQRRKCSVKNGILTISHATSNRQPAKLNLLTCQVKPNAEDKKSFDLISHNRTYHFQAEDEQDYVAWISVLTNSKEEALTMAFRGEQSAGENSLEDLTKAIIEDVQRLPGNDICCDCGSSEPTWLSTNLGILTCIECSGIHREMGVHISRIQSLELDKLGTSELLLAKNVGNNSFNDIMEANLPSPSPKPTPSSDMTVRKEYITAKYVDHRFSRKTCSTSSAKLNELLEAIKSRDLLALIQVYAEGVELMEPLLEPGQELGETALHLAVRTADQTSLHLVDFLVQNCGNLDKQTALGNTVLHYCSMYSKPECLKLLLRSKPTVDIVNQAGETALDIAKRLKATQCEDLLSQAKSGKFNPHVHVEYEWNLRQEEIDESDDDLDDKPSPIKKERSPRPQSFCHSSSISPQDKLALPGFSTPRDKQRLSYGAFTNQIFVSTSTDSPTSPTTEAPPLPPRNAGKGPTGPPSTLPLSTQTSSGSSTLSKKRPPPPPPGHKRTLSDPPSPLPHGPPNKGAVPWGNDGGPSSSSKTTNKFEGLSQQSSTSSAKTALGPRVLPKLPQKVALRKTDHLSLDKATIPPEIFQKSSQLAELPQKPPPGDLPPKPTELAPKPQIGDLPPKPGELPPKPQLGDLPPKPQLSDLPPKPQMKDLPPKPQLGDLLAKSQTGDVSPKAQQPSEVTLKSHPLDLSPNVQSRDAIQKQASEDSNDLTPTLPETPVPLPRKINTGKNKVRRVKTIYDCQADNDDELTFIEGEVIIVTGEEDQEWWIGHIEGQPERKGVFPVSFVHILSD

[9] = inhibitors of HIV Env-driven cell fusion, dose response, cherry-pick (AID 652057); type: functional, cell-based
[10] = CEM21 lymphoblast cell cytotoxicity, dose response, cytotoxicity control for viral fusion inhibitor project, CellTiter-Glo luminescence, cherry-picked (AID 652042); type: functional, cell-based;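 also: potency for signal decrease meaning cytotoxicity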
[11] = ZM109 Env clade C HIV-1 fusion inhibitors, dose response, HeLa effector, CEM target cells, luciferase, cherry-pick (AID 652058); type: functional, cell-based
[12] = off-target signal loss in HeLa-CEM21 co-culture – HeLa F-luc CTL cells, cherry-picked, counter-screen for HIV-1 Env fusion inhibitor project, dose response (AID 652040); type: functional, cell-based;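 also: potency for signal decrease marking cytotoxic or nonspecific inhibition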
[13] = inhibitors of clade B AD8 Env fusion, dose response, cell-based, cherry-pick (AID 652062); type: functional;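 also: luciferase signal from cell-cell fusion driven by HIV-1 clade B AD8 Env; potency is for inhibitors of fusion seen as a drop in luminescence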
[14] = human group III sPLA2 inhibitors, dose response, biochemical, QFRET, IC50 (AID 743457);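 also: green fluorescence rise as the enzyme cleaves BODIPY PC-A2 in liposomes; potency for inhibition of the enzyme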
[15] = target: T3, Heat shock factor protein 1 (Mus musculus, UniProt P38532); assay: HSF1 potentiators in luciferase reporter cells, confirmation, cell-based, NIH3T3, luminescence, dose retest (AID 435004); type: functional;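 also: stress induced by proteasome inhibitor MG132 added 30 min after compound; luciferase reporter driven by HSF1 response element in NIH3T3 cells; actives raise luminescence as potentiators of the MG132 stress response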
T3 sequence (P38532 whole entry): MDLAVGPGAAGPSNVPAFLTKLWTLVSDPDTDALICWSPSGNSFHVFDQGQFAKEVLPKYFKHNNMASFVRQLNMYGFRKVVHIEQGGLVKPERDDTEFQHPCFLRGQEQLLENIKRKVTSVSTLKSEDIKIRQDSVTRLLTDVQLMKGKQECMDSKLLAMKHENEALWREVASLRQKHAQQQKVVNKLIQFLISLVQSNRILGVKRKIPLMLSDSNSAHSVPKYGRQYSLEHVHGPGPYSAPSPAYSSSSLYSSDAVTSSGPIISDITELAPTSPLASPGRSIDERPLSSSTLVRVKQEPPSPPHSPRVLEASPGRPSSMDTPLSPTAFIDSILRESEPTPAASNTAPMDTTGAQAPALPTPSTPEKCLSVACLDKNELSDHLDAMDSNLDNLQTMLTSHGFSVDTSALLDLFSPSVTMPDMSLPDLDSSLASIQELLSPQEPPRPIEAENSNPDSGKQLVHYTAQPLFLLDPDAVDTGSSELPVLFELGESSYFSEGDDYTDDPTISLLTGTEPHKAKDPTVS

[16] = target: T4, Corticotropin-releasing factor receptor 2/Corticotropin-releasing factor-binding protein (Homo sapiens, UniProt P24387+Q13324); assay: activators of CRF receptor 2 with binding protein – uHTS hits, confirmation (AID 602473); type: functional; conditions: read-out: EC50_Mean
T4 sequence (Q13324 whole entry): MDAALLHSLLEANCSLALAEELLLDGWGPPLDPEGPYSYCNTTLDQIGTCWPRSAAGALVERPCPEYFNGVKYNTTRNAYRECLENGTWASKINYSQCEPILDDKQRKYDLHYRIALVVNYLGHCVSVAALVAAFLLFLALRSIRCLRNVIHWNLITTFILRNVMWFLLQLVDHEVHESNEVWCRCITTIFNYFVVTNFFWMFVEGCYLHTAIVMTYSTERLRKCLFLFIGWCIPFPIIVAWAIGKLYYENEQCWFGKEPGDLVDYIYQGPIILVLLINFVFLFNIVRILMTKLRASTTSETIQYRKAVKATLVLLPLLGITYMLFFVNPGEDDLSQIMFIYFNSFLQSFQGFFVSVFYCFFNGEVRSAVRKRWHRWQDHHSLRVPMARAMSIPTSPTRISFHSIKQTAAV
T4 sequence (P24387 whole entry): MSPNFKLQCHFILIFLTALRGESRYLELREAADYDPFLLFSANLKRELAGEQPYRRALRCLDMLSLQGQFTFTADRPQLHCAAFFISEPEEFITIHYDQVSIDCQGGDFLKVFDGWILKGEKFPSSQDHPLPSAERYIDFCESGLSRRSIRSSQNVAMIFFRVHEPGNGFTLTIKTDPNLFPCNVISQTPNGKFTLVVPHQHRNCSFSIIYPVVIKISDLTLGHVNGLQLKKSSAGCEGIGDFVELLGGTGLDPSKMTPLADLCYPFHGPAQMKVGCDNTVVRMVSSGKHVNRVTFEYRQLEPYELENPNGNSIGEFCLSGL

[17] = target: Beta-galactosidase (Escherichia coli, UniProt Q8VNN2); assay: Dose response counterscreen for EBI2 assay utilizing the enzyme, b-galactosidase.; type: functional
Chain of Beta-galactosidase (Q8VNN2 whole entry): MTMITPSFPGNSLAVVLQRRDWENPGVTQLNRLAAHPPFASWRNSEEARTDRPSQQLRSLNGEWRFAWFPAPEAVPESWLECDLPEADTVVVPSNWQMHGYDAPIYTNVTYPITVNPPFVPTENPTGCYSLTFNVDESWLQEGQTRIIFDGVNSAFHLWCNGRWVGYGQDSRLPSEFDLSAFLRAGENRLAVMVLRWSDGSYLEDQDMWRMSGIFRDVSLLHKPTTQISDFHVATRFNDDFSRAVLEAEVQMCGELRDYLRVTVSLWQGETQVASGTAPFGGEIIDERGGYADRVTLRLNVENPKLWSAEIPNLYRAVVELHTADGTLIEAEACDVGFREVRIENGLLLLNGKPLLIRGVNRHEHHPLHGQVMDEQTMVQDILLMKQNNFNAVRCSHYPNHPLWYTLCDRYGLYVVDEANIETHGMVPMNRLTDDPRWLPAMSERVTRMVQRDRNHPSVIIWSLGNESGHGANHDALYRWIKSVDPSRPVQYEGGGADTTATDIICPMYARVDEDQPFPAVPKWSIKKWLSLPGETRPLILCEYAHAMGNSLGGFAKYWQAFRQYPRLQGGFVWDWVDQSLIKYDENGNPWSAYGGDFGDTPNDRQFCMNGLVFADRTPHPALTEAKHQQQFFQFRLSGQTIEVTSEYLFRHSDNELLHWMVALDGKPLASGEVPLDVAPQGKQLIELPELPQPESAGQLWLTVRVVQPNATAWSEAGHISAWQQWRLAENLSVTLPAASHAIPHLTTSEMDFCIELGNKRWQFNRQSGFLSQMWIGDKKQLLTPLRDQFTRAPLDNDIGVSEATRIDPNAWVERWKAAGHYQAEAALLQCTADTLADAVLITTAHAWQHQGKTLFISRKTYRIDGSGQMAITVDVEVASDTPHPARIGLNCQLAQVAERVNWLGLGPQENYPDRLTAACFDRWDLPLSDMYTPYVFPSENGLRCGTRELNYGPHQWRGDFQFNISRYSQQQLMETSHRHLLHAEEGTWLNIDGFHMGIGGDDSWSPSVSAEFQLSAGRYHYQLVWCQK

Structure (SMILES): CCOC(=O)CN1C(=O)S/C(=C/c2ccc(OCc3ccc(C(=O)O)cc3)cc2)C1=O
- IC50 [1]: 3.74 µM (active)
- IC50 [2]: 3.24 µM (active)
- IC50 [3]: 25.4 µM (inactive)
- IC50 [4]: 4.27 µM (active)
- IC50 [5]: 50.6 µM (inactive)

Structure (SMILES): N#Cc1c(-c2ccco2)cc(C2CC2)nc1N
- IC50 [6]: 1.43 µM (active)

Structure (SMILES): CC(C)N1CC2(CN(CC3CCCCC3)C2)Oc2c(NC(=O)c3ccncc3)cccc2C1=O
- AC50 [7]: 1.18 µM (active)

Structure (SMILES): COc1cc(/C=C2/SC(N)=NC2=O)ccc1Oc1ccc([N+](=O)[O-])cc1[N+](=O)[O-]
- IC50 [8]: 54.9 µM (inactive)

Structure (SMILES): Cc1ccc2nc(NC(=O)C3CCN(S(=O)(=O)c4cccs4)CC3)sc2c1
- AC50 [9]: 46.5 µM (active)
- AC50 [10]: 69.6 µM (active)
- AC50 [11]: 13.9 µM (active)
- AC50 [12]: > 70 µM (inactive)
- AC50 [13]: 3.05 µM (active)

Structure (SMILES): O=C(NNc1nc2cc3c(cc2s1)OCO3)c1ccc(F)cc1
- IC50 [14]: > 122 µM (inactive)

Structure (SMILES): CC1(C)CC(=O)C(=CNc2cc(C(=O)c3ccccc3)ccc2/N=C/C2=C(O)CC(C)(C)CC2=O)C(=O)C1
- EC50 [15]: 56.1 µM (active)
- EC50 [16]: > 53 µM (inactive)
- IC50 [17]: 7.97 µM (active)
